In US9958439B2, “Carbohydrate detection” (RICHTER LIFE SCIENCE DEVELOPMENT AB, priority 2012, dated 2018):
Like-named read-outs stand apart in the source and are kept apart here.

Tests used:
[1] = for RFU change (Correlation analysis) / RFU change (Signal deviation with increasing [Carbohydrate]) / λmax change: 3 μM probe; for RFU change (Correlation analysis): probe-specific excitation λ, emission 545 nm; for RFU change (Signal deviation with increasing [Carbohydrate]) / λmax change: spectral analysis, Excitation 300-500, Emission 545; for carbohydrate can be detected and/or differentiated by the LCO: conclusion from change in signal magnitude and/or shift in λmax; for Gradient Parameters (gradient of regression line) / Linear relationship / Quality of Gradient: linear regression
In short: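 Each LCO probe at 3 μM was added to two-fold serial dilutions of carbohydrate in dH2O (10–0.039 mg/ml for β-1,3-glucan, cellulose, chitin; 5–0.019 mg/ml for the others), run in triplicate. Excitation spectra were scanned 300–500 nm with emission at 545 nm. Detection was a reproducible λmax and/or RFU shift versus negative control, with linear regression of RFU against concentration.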

[2] = In short: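 LCO probes (3 μM) were added to serial two-fold dilutions of carbohydrate suspensions in dH2O, with excitation scanned 300–500 nm and emission at 545 nm. Detection was a reproducible λmax and/or RFU change versus no-carbohydrate control. RFU was regressed linearly against concentration at the λmax or the lowest-background excitation.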
[3] = remark: listed apart in the source
In short: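 LCO probes at 3 μM mixed with serial two-fold carbohydrate dilutions in water (10–0.039 or 5–0.019 mg/ml), run in triplicate. Excitation scanned 300–500 nm with emission at 545 nm; detection based on reproducible λmax or RFU shift against the no-carbohydrate control, with linear regression of RFU on concentration.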

[4] = for RFU change (Correlation analysis): probe-specific excitation λ, emission 545 nm; for Gradient Parameters (gradient of regression line) / Quality of Gradient: linear regression
In short: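 LCO probes at 3 μM mixed with serial two-fold dilutions of carbohydrate in dH2O (10–0.039 or 5–0.019 mg/ml, depending on carbohydrate), in triplicate. Excitation scanned 300–500 nm or fixed per probe (λmax or lowest background), emission at 545 nm. Detection taken as reproducible λmax/RFU shift vs no-carbohydrate control; RFU regressed linearly on concentration.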

[5] = for RFU change (Correlation analysis): probe-specific excitation λ, emission 545 nm; for carbohydrate can be detected and/or differentiated by the LCO: conclusion from change in signal magnitude and/or shift in λmax; for Gradient Parameters (gradient of regression line) / Linear relationship / Quality of Gradient: linear regression
In short: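 LCO probes at 3 μM mixed with serial twofold carbohydrate dilutions in dH2O (10–0.039 or 5–0.019 mg/ml, depending on carbohydrate). Excitation scanned 300–500 nm, emission read at 545 nm; detection defined as reproducible shift in λmax and/or RFU relative to negative control, with linear regression of RFU against concentration.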

[6] = remark: listed apart in the source
In short: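 3 μM of each LCO probe was added to serial two-fold carbohydrate dilutions in water (10–0.039 or 5–0.019 mg/ml). Excitation spectra were scanned 300–500 nm with emission at 545 nm, in triplicate. Detection was defined as a reproducible shift in λmax and/or RFU versus negative control, with linear regression of RFU against concentration.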

[7] = β-1,3-glucan concentration vs RFU
[8] = sodium alginate concentration vs RFU, linear regression
[9] = glucose concentration vs RFU, linear regression
[10] = Cellulobiose 5-0.019 mg/ml, 3 μM probe, spectral analysis, Excitation 300-500, Emission 545
[11] = cellulobiose concentration vs RFU
[12] = Glycogen 5-0.019 mg/ml, 3 μM probe, spectral analysis, Excitation 300-500, Emission 545
[13] = Chondroitin Sulfate A 5-0.019 mg/ml, 3 μM probe, spectral analysis, Excitation 300-500, Emission 545
[14] = Chondroitin Sulfate A concentration vs RFU, linear regression

Cl.Cl.N=C(N)NCCC[C@H](NC(=O)Cc1cc(-c2cccs2)sc1-c1ccc(-c2sc(-c3cccs3)cc2CC(=O)N[C@@H](CCCNC(=N)N)C(=O)O)s1)C(=O)O [pHTA-Arg, penta Hydrogen Thiophene Acetic acid Arginine]
RFU change (Correlation analysis) ([1]; Cellulose 10-[…]): Increase | RFU change (Signal deviation with increasing [Carbohydrate]) ([1]; Cellulose 10-[…]): Increase | λmax change ([1]; Cellulose 10-[…]): Redshift | carbohydrate can be detected and/or differentiated by the LCO ([1]; Cellulose): can be detected and/or differentiated | RFU change (Correlation analysis) ([1]; Chitin 10-[…]): Increases | RFU change (Signal deviation with increasing [Carbohydrate]) ([1]; Chitin 10-[…]): Increases | λmax change ([1]; Chitin 10-[…]): Redshift | carbohydrate can be detected and/or differentiated by the LCO ([1]; Chitin): can be detected and/or differentiated | Gradient Parameters (gradient of regression line) ([1]; cellulose concentration vs RFU): 194.0 ± 29.9 | Linear relationship ([1]; cellulose concentration vs RFU): Significant | Quality of Gradient ([1]; cellulose concentration vs RFU): Positive | Gradient Parameters (gradient of regression line) ([1]; chitin concentration vs RFU): 338.2 ± 19.4 | Linear relationship ([1]; chitin concentration vs RFU): Significant | Quality of Gradient ([1]; chitin concentration vs RFU): Positive | Sensitivity ([1]; to cellulose): Yes | Sensitivity ([1]; to chitin): Yes | Sensitivity ([1]; to β-1,3-glucan): Yes | carbohydrate can be detected and/or differentiated by the LCO ([1]; β-1,3-Glucan): can be detected and/or differentiated | RFU change (Correlation analysis) ([1]; β-1,3-glucan 10-[…]): Increase | RFU change (Signal deviation with increasing [Carbohydrate]) ([1]; β-1,3-glucan 10-[…]): Increase | Gradient Parameters (gradient of regression line) [1, 7]: 119.1 ± 16.69 | Quality of Gradient [1, 7]: Positive | RFU change (Correlation analysis) ([2]; Sodium alginate 5-0.019 mg/ml, 3 μM probe, probe-specific excitation λ, emission 545 nm): Increases | RFU change (Signal deviation with increasing [Carbohydrate]) ([2]; Sodium alginate 5-0.019 mg/ml, 3 μM probe, spectral analysis, Excitation 300-500, Emission 545): Increases | carbohydrate can be detected and/or differentiated by the LCO ([2]; Sodium alginate, conclusion from change in signal magnitude and/or shift in λmax): can be detected and/or differentiated | Gradient Parameters (gradient of regression line) [2, 8]: 78.6 ± 18.6 | Linear relationship [2, 8]: Significant | Quality of Gradient [2, 8]: Positive | Sensitivity ([2]; to sodium alginate): Yes | RFU change (Correlation analysis) ([3]; Glucose 5-0.019 mg/ml, 3 μM probe, probe-specific excitation λ, emission 545 nm): Unclear | RFU change (Signal deviation with increasing [Carbohydrate]) ([3]; Glucose 5-0.019 mg/ml, 3 μM probe, spectral analysis, Excitation 300-500, Emission 545): Increases | Gradient Parameters (gradient of regression line) [3, 9]: 17.9 ± 38.1 | Quality of Gradient [3, 9]: Horizontal | Sensitivity ([3]; to glucose): No | RFU change (Correlation analysis) ([4]; Amylose 5-0.019 mg/ml, 3 μM probe): Unclear | RFU change (Signal deviation with increasing [Carbohydrate]) ([4]; Amylose 5-0.019 mg/ml, 3 μM probe, spectral analysis, Excitation 300-500, Emission 545): Unclear | RFU change (Correlation analysis) ([4]; Cellulobiose 5-0.019 mg/ml, 3 μM probe): Unclear | RFU change (Signal deviation with increasing [Carbohydrate]) [4, 10]: Unclear | λmax change [4, 10]: No change | Gradient Parameters (gradient of regression line) ([4]; amylose concentration vs RFU): −28.4 ± 21.6 | Quality of Gradient ([4]; amylose concentration vs RFU): Horizontal | Gradient Parameters (gradient of regression line) [4, 11]: −1.30 ± 12.9 | Quality of Gradient [4, 11]: Horizontal | Sensitivity ([4]; to amylose): No | Sensitivity ([4]; to cellulobiose): No | RFU change (Correlation analysis) ([5]; Glycogen 5-0.019 mg/ml, 3 μM probe): Increases | RFU change (Signal deviation with increasing [Carbohydrate]) [5, 12]: Increases | λmax change [5, 12]: Redshift | carbohydrate can be detected and/or differentiated by the LCO ([5]; Glycogen): can be detected and/or differentiated | RFU change (Correlation analysis) ([5]; Heparin 5-0.019 mg/ml, 3 μM probe): Increases | RFU change (Signal deviation with increasing [Carbohydrate]) ([5]; Heparin 5-0.019 mg/ml, 3 μM probe, spectral analysis, Excitation 300-500, Emission 545): Increases | carbohydrate can be detected and/or differentiated by the LCO ([5]; Heparin): can be detected and/or differentiated | Gradient Parameters (gradient of regression line) ([5]; glycogen concentration vs RFU): 72.8 ± 13.4 | Linear relationship ([5]; glycogen concentration vs RFU): Significant | Quality of Gradient ([5]; glycogen concentration vs RFU): Positive | Gradient Parameters (gradient of regression line) ([5]; heparin concentration vs RFU): 29.3 ± 8.6 | Linear relationship ([5]; heparin concentration vs RFU): Significant | Quality of Gradient ([5]; heparin concentration vs RFU): Positive | Sensitivity ([5]; to glycogen): Yes | Sensitivity ([5]; to heparin): Yes | RFU change (Correlation analysis) ([6]; Chondroitin Sulfate A 5-0.019 mg/ml, 3 μM probe, probe-specific excitation λ, emission 545 nm): Increases | RFU change (Signal deviation with increasing [Carbohydrate]) [6, 13]: Increases | λmax change [6, 13]: No change | Gradient Parameters (gradient of regression line) [6, 14]: 143.4 ± 10.01 | Linear relationship [6, 14]: Significant | Quality of Gradient [6, 14]: Positive | carbohydrate can be detected and/or differentiated by the LCO ([6]; Chondroitin sulfate A, conclusion from change in signal magnitude and/or shift in λmax): can be detected and/or differentiated | Sensitivity ([6]; to Chondroitin Sulfate A): Yes
